Read-outs that look alike come from different tables or passages of the source.
Experiments:
[1] = system: VSV-G pseudotyped MLV vector (MMP-nls-lacZ[VSV-G]); assay type: cell-based, murine leukemia virus (MLV)
[2] = system: MLV LTR-driven mRNA transcription (pCMMP-EGFP); assay type: cell-based, murine leukemia virus (MLV)
[3] = system: VSV-G pseudotyped HIV-1 vector NL43E-R-Luc; assay type: cell-based
aryl sulfotransferases = conditions: cited from earlier work
[4] = system: MLV vector pMMp-nls-LacZ[VSV-G]; assay type: cell-based, murine leukemia virus (MLV)
[5] = system: MLV vector pMMp-nls-LacZ[VSV-G]; assay type: cell-based, murine leukemia virus (MLV); remark: listed apart in the source
[6] = system: VSV-G pseudotyped MLV vector (pLEGFP); assay type: cell-based, murine leukemia virus (MLV)
[7] = system: resident (pCMMP-SEAP) and newly acquired (MMP-nls-lacZ[VSV-G]) MLV proviruses; assay type: cell-based, murine leukemia virus (MLV)
HIV [8] = assay: HIV infection in low versus high sulfate media; conditions: FIG. 20B
HIV [9] = assay: HIV infection with suboptimal (20 mM) chlorate; conditions: FIG. 21B

COc1ccccc1O [guaiacol]
fold less blue cells as compared to untreated cells [1]: ~3.4 fold | reduction of viral-derived transcript levels, normalized to β-actin ([2]; CHO-K1 cells, 100 mM chlorate, 5 mM guaiacol or both, FIGS. 6D, 6E): 17 fold | reduction in HIV LTR-driven reporter gene expression [3]: 8 fold | quantities that interfere with aryl sulfotransferases (aryl sulfotransferases): mM

[O-][Cl+2]([O-])O [chlorate]
fold less blue cells as compared to untreated cells [1]: approximately 6.7 fold | time of addition that had no effect on viral reporter gene expression [1]: ≥ 18 hpi | time of addition that led to a reduction in subsequent viral reporter gene expression [1]: up to 16 hpi | fold less susceptible to infection, by reporter gene expression [4]: approximately 9.3 fold | additional reduction of MLV infection [5]: 2 fold | effect on accumulation of viral reverse transcription products [6]: no effect | reduction of viral-derived transcript levels, normalized to β-actin [2]: 11 fold | effect on gene expression from newly acquired versus resident proviruses [7]: affected gene expression from the newly acquired, but not the resident proviruses | influence on β-galactosidase expression from a resident MLV vector [7]: not to influence | reduction in HIV LTR-driven reporter gene expression [3]: 10 fold

Oc1cc(Cl)ccc1Oc1ccc(Cl)cc1Cl [trichlosan]
quantities that interfere with aryl sulfotransferases (aryl sulfotransferases): μM

Cc1cn([C@H]2C[C@H](N=[N+]=[N-])[C@@H](CO)O2)c(=O)[nH]c1=O [AZT]
inhibition of HIV infection in low sulfate media versus high sulfate media (HIV [8]): unaffected by low sulfate conditions | inhibition of HIV infection in media containing 20 mM chlorate versus standard media (HIV [9]): unaffected by 20 mM chlorate

Reference: patent US20110165266A1 (priority 2008, published 2011)
